Positions of bridges follow the written chain, without caps; N, C: chain ends. Non-standard residues stand in square brackets, D forms with d. Residues, ends and D or L forms follow the SMILES beside them. *: point of attachment. FITC = O=C1OC2(c3ccc(O)cc3Oc3cc(O)ccc32)c2ccc(NC(=S)*)cc21; S5 = C=CCCC[C@](C)(N)C(=O)O; AEEA = NCCOCCOCC(=O)O

The target of one data set is proteinase K (Parengyodontium album, UniProt P06873). The experiment in a line: Protease stability assay. In kind it is in vitro ADME. The following applies: proteinase K 10 μg·ml^−1, fluorescein-labeled peptide 50 μM, 10 mM Tris pH 8.0, 150 mM NaCl, room temperature, HPLC absorbance 210 nm, exponential decay fit. How it is done:
Protease stability assays were performed in analogy to a previously published protocol ([47]). Stocks of fluorescein-labeled peptides were prepared to a concentration of 55.5 μM in assay buffer (10 mM Tris, pH 8.0, 150 mM NaCl) and separately stocks of proteinase K also in assay buffer (c = 100 μg·ml^−1). To begin each experiment, peptide and proteinase K stocks were mixed (final concentrations: c = 10 μg·ml^−1 proteinase K, c = 50 μM fluorescein-labeled peptide; final volume = 500 μl) and incubated at room temperature. At each time point, 50 μl of the reaction mixture was quenched by adding 100 μl of TFA/ACN/H2O (v/v/v, 1:49:49) and subsequently incubated for 2 min on ice. Following centrifugation (15 min, 13200 rpm, 4°C), samples (45 μl) were monitored by analytical HPLC using a linear gradient of 10–60% HPLC solvent B over 20 min. The amount of remaining peptide was quantified via absorbance at λ = 210 nm (intact peptide (%)) and plotted against time (t) (h). Half-life (t1/2) was calculated by fitting the data to an exponential decay using the software Prism 5.0 (GraphPad).

A short description of data set [1]: CD spectroscopy, secondary structure content. Type of data set: physicochemical. The following applies: fluorescein-labeled peptide 75 μM, 10 mM sodium phosphate pH 7.4, CDNN/PEPFIT; for Helix (α-helicity): unbound. As for the experimental part:
Spectra of fluorescein-labeled peptides were recorded with a J-715 circular dichroism spectrometer (Jasco) using a stoppered quartz cuvette (1 mm; Hellma). Peptide samples (c = 75 μM) were prepared in buffer: 10 mM disodium hydrogen phosphate, pH 7.4. For each sample, 10 CD spectra were measured between λ = 190 and 260 nm with continuous scan mode (10 mdeg sensitivity, 1.0 nm resolution, 1.0 nm bandwidth, 2 s integration time, 50 nm/min scan rate). Obtained spectra were averaged, then subtracted from a reference buffer spectrum and smoothed using a fast Fourier transform filter (FFT filter). The mean residue ellipticity (Θ) (deg·cm^2·dmol^−1·10^4) was calculated using Formula (2) and plotted against wavelength (λ) (nm). The ratio of secondary structure elements was calculated with CDNN using the PEPFIT set of reference spectra for secondary structure determination ([45],[46]):(2) where [Θ]m = mean molar ellipticity per peptide bond (degree·cm^2·dmol^−1·10^4), Θ = measured ellipticity (degree), d = optical path length (cm), cg = mass concentration (g·l^−1), MRW = mean residue weight, M = molar mass of the peptide (g·mol^−1) and N = number of peptide bonds.

Chain of proteinase K (P06873 106-384): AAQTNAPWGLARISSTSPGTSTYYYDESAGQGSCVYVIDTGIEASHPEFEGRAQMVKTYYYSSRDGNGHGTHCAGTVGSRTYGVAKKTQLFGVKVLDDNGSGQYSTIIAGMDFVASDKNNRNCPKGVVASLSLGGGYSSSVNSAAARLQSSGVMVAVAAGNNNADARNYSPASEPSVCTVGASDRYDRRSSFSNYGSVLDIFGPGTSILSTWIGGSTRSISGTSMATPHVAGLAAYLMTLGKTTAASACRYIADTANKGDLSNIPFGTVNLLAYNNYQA

Take `CC(C)C[C@H](NC(=O)[C@]1(C)CCCC=CCCC[C@](C)(NC(=O)[C@H](CCC(=O)O)NC(=O)[C@H](CO)NC(=O)[C@@H]2CCCN2C(=O)[C@H](CO)NC(=O)[C@H](CCCCN)NC(=O)[C@H](Cc2c[nH]cn2)NC(=O)CNC(=O)[C@H](CCCNC(=N)N)NC(=O)[C@H](CCC(=O)O)NC(=O)[C@H](CCCCN)NC(=O)[C@H](CCCNC(=N)N)NC(=O)[C@H](CC(N)=O)NC(=O)[C@]2(C)CCCC=CCCC[C@](C)(NC(=O)[C@H](CCCNC(=N)N)NC(=O)[C@H](CCC(N)=O)NC(=O)[C@H](C)NC(=O)[C@H](CCC(N)=O)NC(=O)[C@H](CCCCN)NC(=O)[C@H](CCCCN)NC(=O)COCCOCCNC(=S)Nc3ccc4c(c3)C(=O)OC43c4ccc(O)cc4Oc4cc(O)ccc43)C(=O)N[C@@H](CCCNC(=N)N)C(=O)N[C@@H](Cc3c[nH]cn3)C(=O)N[C@@H](CCCCN)C(=O)N2)C(=O)N[C@@H](CCCNC(=N)N)C(=O)N[C@@H](CCCNC(=N)N)C(=O)N[C@@H](CO)C(=O)N1)C(=O)N[C@@H](Cc1c[nH]c2ccccc12)C(=O)N[C@@H](Cc1c[nH]cn1)C(=O)N[C@@H](C)C(=O)N[C@@H](CCCNC(=N)N)C(N)=O` [B2] ({FITC-AEEA}-KKQAQR[S5]RHK[S5]NRKERGHKSPSE[S5]RRS[S5]LWHAR-NH2; staple 7-11, 24-28): the “Half-life (t1/2)” value at proteinase K is 8.93 h. For the same compound, in data set [1], the Random coil was determined as 12.5%, the β-Sheet amounted to 2.4%, the β-Turn is recorded as 10.3% and the “Helix (α-helicity)” value amounted to 82.2%.
In the same order, the values of `CC(C)C[C@H](NC(=O)[C@H](CCCCN)NC(=O)[C@H](Cc1c[nH]cn1)NC(=O)[C@H](CCCNC(=N)N)NC(=O)[C@H](CCCCN)NC(=O)[C@H](CCCNC(=N)N)NC(=O)[C@H](CCC(N)=O)NC(=O)[C@H](C)NC(=O)[C@H](CCC(N)=O)NC(=O)[C@H](CCCCN)NC(=O)[C@H](CCCCN)NC(=O)COCCOCCNC(=S)Nc1ccc2c(c1)C(=O)OC21c2ccc(O)cc2Oc2cc(O)ccc21)C(=O)N[C@@H](CC(N)=O)C(=O)N[C@@H](CCCNC(=N)N)C(=O)N[C@@H](CCCCN)C(=O)N[C@@H](CCC(=O)O)C(=O)N[C@@H](CCCNC(=N)N)C(=O)NCC(=O)N[C@@H](Cc1c[nH]cn1)C(=O)N[C@@H](CCCCN)C(=O)N[C@@H](CO)C(=O)N1CCC[C@H]1C(=O)N[C@@H](CO)C(=O)N[C@@H](CCC(=O)O)C(=O)N[C@@]1(C)CCCC=CCCC[C@@](C)(C(=O)N[C@@H](CC(C)C)C(=O)N[C@@H](Cc2c[nH]c3ccccc23)C(=O)N[C@@H](Cc2c[nH]cn2)C(=O)N[C@@H](C)C(=O)N[C@@H](CCCNC(=N)N)C(N)=O)NC(=O)[C@H](CO)NC(=O)[C@H](CCCNC(=N)N)NC(=O)[C@H](CCCNC(=N)N)NC1=O` [B] ({FITC-AEEA}-KKQAQRKRHKLNRKERGHKSPSE[S5]RRS[S5]LWHAR-NH2; staple 24-28) are 1.08 h, 46.0%, 6.8%, 13.9% and 30.5%.

The values above are taken from paper PMC8682738, “Constrained peptides mimic a viral suppressor of RNA silencing” (Nucleic Acids Research, 2021).
